Results: patent publication US20210189503A1, “BIOMARKERS FOR DETERMINING RESPONSIVENESS OF A CANCER TO PI3K INHIBITORS” (MEMORIAL SLOAN-KETTERING CANCER CENTER, priority 2018, published 2021)

Assays:
[1] = tested on: PIK3CA mutant and WT breast cancers; assay: Retrospective PFS analysis on endocrine therapy (aromatase inhibitor or fulvestrant); assay type: in vivo, human
Experimental: (§1) Retrospective PFS analysis was performed on tumors from a large breast cancer dataset (n=1918) sequenced by MSK-IMPACT ((Razavi et al., Cancer Cell 34, 427-438 e426 (2018)). Tumors were included in analysis if both pre- and post-endocrine therapy (aromatase inhibitor or fulvestrant) biopsies confirmed WT, single PIK3CA mutation, or multiple PIK3CA mutations. Kaplan-Meier curves were generated for PFS after firstline aromatase inhibitor or firstline fulvestrant therapy. PFS analysis was performed on patients enrolled in NCT01870505, a phase 1 clinical trial of alpelisib plus letrozole or exemestane for patients with hormone-receptor positive locally-advanced unresectable or metastatic breast cancer. 46/51 patients had biopsy samples that confirmed PIK3CA mutant or WT alleles by tumor NGS, and these 46 patients were included in the final analysis.

[2] = tested on: PI3K pathway signaling in PIK3CA mutant NIH-3T3 cells; assay: Western blotting of PI3K effectors, NIH-3T3 cells; assay type: cell-based, mouse; details: BYL719 1 μM, 24 hours, serum starvation, vs single mutant cells
[3] = tested on: recombinant single and cis mutant PI3Kα complexes; assay: IC50 determination of recombinant PI3K (Transcreener ADP2 fluorescence intensity assay); details: among the recombinant single and cis mutant PI3Kα complexes
[4] = tested on: PI3K pathway signaling in PIK3CA mutant MCF10A cells; assay: Western blotting of PI3K effectors, MCF10A cells; details: BYL719 1 μM, 24 hours, serum starvation, vs single mutant cells
[5] = tested on: ER+ metastatic breast cancer; assay: Phase 1 clinical trial NCT01870505 of alpelisib (BYL719) plus aromatase inhibitor, PFS analysis; assay type: in vivo, human; details: with an aromatase inhibitor; for progression free survival: tumor NGS (FIG. 18C); for PFS (duration of response to PI3K inhibition): tumor and ctDNA NGS (FIG. 17E)
Experimental: Progression-free survival analysis was performed on patients enrolled in NCT01870505, a phase I clinical trial of BYL719 (alpelisib) plus letrozole or exemestane for patients (n=51) with hormone-receptor positive locally-advanced unresectable or metastatic breast cancer. 44/51 patients were analyzed for NGS of their tumors (MSK-IMPACT) and/or NGS of their ctDNA (Guardant) and were included in the analysis. Progression free survival was calculated and was compared between dual and single mutant patients. Clinical benefit rates (complete response, partial response or stable disease) were calculated and were compared between dual and single mutant patients using Fisher's exact test.
as §1

[6] = tested on: PIK3CA mutant MCF10A cells; assay: Cell viability / cell inhibition by PI3K inhibitors (CellTiter-Glo, dose-response survival); details: for sensitivity of cell growth to PI3Kα inhibition: E545K and H1047R major hotspot mutants compared to minor mutants and WT
[7] = tested on: metastatic ER-positive PIK3CA mutant breast cancer; assay: […] phase III clinical trial of taselisib with fulvestrant, ctDNA PIK3CA analysis; assay type: in vivo, human; details: for overall response rate: taselisib arm (with fulvestrant)
Text: The present disclosure investigated the effects of multiple PIK3CA mutations on clinical response to PI3Kα inhibitors in metastatic breast cancer. The present disclosure analyzed response data from […], a phase III registrational clinical trial that tested the efficacy of the PI3Kα inhibitor taselisib (GDC-0032), with fulvestrant (an estrogen receptor [ER] degrader) in metastatic ER-positive PIK3CA mutant breast cancer. This is the largest randomized clinical study testing a PI3Kα inhibitor (631 patients).
Many patients with metastatic ER-positive breast cancer enrolled in this trial had bone metastases, which must be decalcified to be analyzed by NGS, which render DNA sequencing particularly challenging (Singh et al., Ann Diagn Pathol 17, 322-326 (2013)). Thus, the present disclosure used circulating tumor DNA (ctDNA), which has been utilized in many breast cancer clinical trials (Baselga et al., Lancet Oncol 18, 904-916 (2017); Andre et al., N Engl J Med 380, 1929-1940 (2019); Baselga et al., N Engl J Med 366, 520-529 (2012); Turner et al., N Engl J Med 373, 209-219 (2015)), to detect the presence of multiple mutations. Of the 631 patients on the trial, 598 had plasma samples available for analysis, of which 508 were adequate for testing (FIG. 19A). Samples were tested using the Foundation One liquid assay, which sequences the entire PIK3CA gene. Of the 339 patients with detected PIK3CA mutations, 66 (19%) had 2 or more PIK3CA mutations.
For analysis of the […] clinical trial (Baselga, Journal of Clinical Oncology, 2018, 36, no. 18_suppl.) patient ctDNA samples (n=631), 508 patient samples met quality control parameters and were analyzed by Foundation Medicine One Liquid assay (Clark et al., J Mol Diagn 20, 686-702 (2018)) which sequences […] of PIK3CA and can detect mutations at amino acid positions 545, 1047, 453, 726, and 1043 (FIG. 24). 339 samples were identified with PIK3CA mutations, of which 66 contained two or more PIK3CA mutations. Patients with measurable disease from the ctDNA PIK3CA mutant cohort, on the taselisib arm, were analyzed based on the percentage change in the sum of longest diameter (SLD) of target lesion from baseline, and were tabulated by waterfall plot. Patients with both measurable and nonmeasurable disease from the ctDNA PIK3CA mutant cohort were assessed on the placebo and taselisib arms for overall response rate (defined as tumor shrinkage >30%). 95% CI for rates were constructed using the Blyth-Still-Casella method. The CI for the difference in ORRs between the two treatment arms were determined using the normal approximation to the binomial distribution. Response rates in the treatment arms were compared (p-value) using the stratified Cochran-Mantel-Haenszel test.

[8] = biological target: p85α regulatory subunit of PI3Kα (PIK3R1), full length human, hexahistidine-tagged at the N-terminus (UniProt P27986)
p85α regulatory subunit of PI3Kα (PIK3R1), full length human, hexahistidine-tagged at the N-terminus, sequence (P27986 whole entry, looked up, tested part not stated): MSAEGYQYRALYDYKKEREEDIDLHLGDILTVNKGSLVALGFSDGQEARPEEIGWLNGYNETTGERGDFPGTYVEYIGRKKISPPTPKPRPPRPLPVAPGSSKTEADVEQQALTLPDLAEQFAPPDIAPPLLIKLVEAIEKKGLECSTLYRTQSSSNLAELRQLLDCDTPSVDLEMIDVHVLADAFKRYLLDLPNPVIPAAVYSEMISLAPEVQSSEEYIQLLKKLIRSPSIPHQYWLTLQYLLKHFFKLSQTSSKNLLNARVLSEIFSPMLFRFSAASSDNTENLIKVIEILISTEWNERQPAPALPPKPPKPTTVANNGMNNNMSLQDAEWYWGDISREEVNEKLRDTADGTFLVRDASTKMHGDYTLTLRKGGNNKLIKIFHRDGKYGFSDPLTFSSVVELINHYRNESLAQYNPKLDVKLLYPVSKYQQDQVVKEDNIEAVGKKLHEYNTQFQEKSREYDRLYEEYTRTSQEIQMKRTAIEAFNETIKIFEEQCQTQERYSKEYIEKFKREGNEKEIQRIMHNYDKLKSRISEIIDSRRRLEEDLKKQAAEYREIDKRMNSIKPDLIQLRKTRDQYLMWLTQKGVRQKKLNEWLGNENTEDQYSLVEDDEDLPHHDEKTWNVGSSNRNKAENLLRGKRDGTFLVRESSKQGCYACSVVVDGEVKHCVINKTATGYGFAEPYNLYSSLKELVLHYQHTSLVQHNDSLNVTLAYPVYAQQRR

Molecule: C[C@]12CC[C@@H]3c4ccc(O)cc4C[C@@H](CCCCCCCCC[S+]([O-])CCCC(F)(F)C(F)(F)F)[C@H]3[C@@H]1CC[C@@H]2O (stereo partly drawn) [fulvestrant]
- PFS of dual mutant patients vs patients with WT tumors ([1]; fulvestrant): worse PFS
- PFS of patients with dual PIK3CA-mutant tumors vs single mutant or WT tumors ([1]; fulvestrant alone): do not have improved

Molecule: Cc1nc(NC(=O)N2CCC[C@H]2C(N)=O)sc1-c1ccnc(C(C)(C)C(F)(F)F)c1 [alpelisib]
- compound mutant PI3K pathway signaling on PI3K inhibition [2]: decreases to similar levels
- IC50 values, recombinant PI3Kα complexes [3]: similar
- compound mutant PI3K pathway signaling on PI3K inhibition [4]: decreases to similar levels
- progression free survival ([5]; WT PIK3CA tumors): 7.5 weeks
- progression free survival ([5]; double PIK3CA mutant tumors): 48 weeks
- PFS (duration of response to PI3K inhibition) ([5]; dual PIK3CA mutant patients): 48 weeks
- patients with clinical benefit rate >30 weeks ([5]; dual mutant tumors, p=0.044 vs single): 67%
- PFS (duration of response to PI3K inhibition) ([5]; single PIK3CA mutant patients): 17 weeks
- progression free survival ([5]; single PIK3CA mutant tumors): 20 weeks
- patients with clinical benefit rate >30 weeks ([5]; single mutant tumors): 23%
- median PFS, double mutant vs single mutant or WT tumors ([5]; not statistically significant): longer median PFS
- cell viability ([6]; Example 1, compound PIK3CA mutants vs single mutants): more significant decrease in cell viability
- sensitivity of mutations in trans ([6]; MCF10A E726K/H1047R in trans compared to cis mutants): less sensitive
- sensitivity of mutations in trans ([6]; MCF10A E726K/H1047R in trans compared to the single major mutant): no more sensitive
- sensitivity of cell growth to PI3Kα inhibition ([6]; MCF10A): more sensitive
- fold of inhibition of cell growth ([6]; MCF10A, E545K- and H1047R-containing compound mutants vs single mutants): increased fold of inhibition

Molecule: CO[C@H]1C[C@@H]2CC[C@@H](C)[C@@](O)(O2)C(=O)C(=O)N2CCCC[C@H]2C(=O)O[C@H]([C@H](C)C[C@@H]2CC[C@@H](OCCO)[C@H](OC)C2)CC(=O)[C@H](C)/C=C(\C)[C@@H](O)[C@@H](OC)C(=O)[C@H](C)C[C@H](C)/C=C/C=C/C=C/1C [everolimus]
- sensitivity to downstream PI3K pathway inhibitor ([6]; MCF10A, cis mutants compared to single mutants, serum starvation 4 days): more sensitive

Molecule: Cc1nc(-c2cn3c(n2)-c2ccc(-c4cnn(C(C)(C)C(N)=O)c4)cc2OCC3)n(C(C)C)n1 [taselisib]
- overall response rate ([7]; ctDNA PIK3CA mutant total population): 20.3%
- overall response rate ([7]; multiple ctDNA PIK3CA mutant subpopulation): 30.2%
- overall response rate ([7]; single ctDNA PIK3CA mutant subpopulation): 18.1%
- tumor shrinkage, multiple vs single mutant tumors ([7]; taselisib arm, waterfall plot (FIG. 19B)): tumor shrinkage more

Molecule: C[C@H](Nc1ccc2c(c1)OCCn1cc(N3C(=O)OC[C@H]3C(F)F)nc1-2)C(N)=O [GDC-0077]
- IC50 values, recombinant PI3Kα complexes [3]: similar
- sensitivity of cell growth to PI3Kα inhibition ([6]; MCF10A): more sensitive
- IC50 ([6]; read-out: IC50 [GDC-0077] of MCF10A E545K cells, MCF10A E545K cells, per FIG. 6G): 62.5 nM

Molecule: p110α E545K, untagged, full length human
- thermal shift assay (soluble p110α by Western blot across a temperature gradient) [8]: Among single mutants, E545K is the most thermally unstable
